SMILES strings stand for the structures. Like-named read-outs stand apart in the source and are kept apart here.

In data set [1] the test system is HBV (HepG2.117 cell line, inducibly HBV producing). The experiment in a line: Anti-HBV activity: intracellular HBV DNA by real-time PCR in HepG2.117 cells after 3 days of treatment. It is filed as cell-based, hepatitis B virus. The method in brief:
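HepG2.117 cells (Tet-off, inducible HBV production) were induced to replicate HBV by doxycycline absence, then treated with serially diluted compound for 3 days. Activity was quantified as intracellular HBV DNA by real-time PCR using an HBV-specific primer set and probe.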

Another data set in a line: in vitro. It is filed as cell-based. The settings on record: human, HepG2 or HepG2.117 cells, ATPlite, mean value. A digest of the protocol:
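Luminescent ATP quantitation served as the viability endpoint following a 3- or 4-day incubation with test compounds.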
In general terms: ATP-based viability assays read luminescence as a measure of living cells.

Where [2] appears, read: Hepatitis B virus, HepG2.117, 72 h, HepG2.117 cells, 3 days of treatment, intracellular HBV DNA by real-time PCR; mean value; read-out: EC50 (μM, mean value).
The mark [3] stands for this setting: 3-days incubation (unmarked values).
Where [4] appears, read: Hepatitis B virus, HepG2.117, 72 h, HepG2.117 cells, intracellular HBV DNA by real-time PCR, 3 days of treatment, mean value; read-out: EC50 (μM, mean value).
The mark [5] stands for this setting: 3-days incubation (not marked with *).

As a reminder, the EC50 is the midpoint of the concentration-response curve. The CC50 is the concentration that lowers cell viability or growth by half. High values mean lower toxicity to the cells, low ones greater toxicity to the cells. Regarding `CNC(=O)c1cc(-n2c(NC(C)C)nc3c(c2=O)C[C@@H](C)N(C(=O)c2ccc(Cl)c(Cl)c2)C3)n(C)n1` [Compound C354, 5-[(6R)-7-(3,4-dichlorobenzoyl)-6-methyl-4-oxo-2-[(propan-2-yl)amino]-5,6,7,8-tetrahydropyrido[3,4-d]pyrimidin-3(4H)-yl]-N,1-dimethyl-1H-pyrazole-3-carboxamide], in data set [1] (setting [2]), the EC50 turned out to be 0.16 µM. Also, the CC50 at 3 days in “in vitro” (setting [3]) was over 50 µM.

For the molecule `CNC(=O)c1ccc(-n2c(NC(C)C)nc3c(c2=O)C[C@@H](C)N(C(=O)c2cc(Cl)c(Br)cc2F)C3)cc1` [Compound C577], in data set [1] (setting [4]), the EC50 stood at 0.17 µM. In addition, in the data set “in vitro” (setting [5]), the CC50 at 3 days is over 50 µM.

As for `CC(C)Nc1nc2c(c(=O)n1-c1ccc(N3CCCC3CO)cc1)C[C@@H](C)N(C(=O)c1ccc(Cl)c(Cl)c1)C2` (stereo partly drawn) [Compound C215, (6R)-7-(3,4-dichlorobenzoyl)-3-{4-[2-(hydroxymethyl)pyrrolidin-1-yl]phenyl}-6-methyl-2-[(propan-2-yl)amino]-5,6,7,8-tetrahydropyrido[3,4-d]pyrimidin-4(3H)-one], in data set [1] (setting [2]), the EC50 was found to be 0.21 µM. Also, the CC50 at 3 days in “in vitro” (setting [3]) turned out to be 31.9 µM.

With `COc1ccccc1-n1c(NC2CCc3ccccc32)nc2c(c1=O)CCN(C(=O)c1ccc(Cl)c(Cl)c1)C2` (stereo not drawn) [Compound C55, 7-(3,4-dichlorobenzoyl)-2-[(2,3-dihydro-1H-inden-1-yl)amino]-3-(2-methoxyphenyl)-5,6,7,8-tetrahydropyrido[3,4-d]pyrimidin-4(3H)-one], the EC50 in data set [1] (setting [2]) stood at 22.1 µM. Also, the CC50 at 3 days in the data set “in vitro” (setting [3]) stood at 23.6 µM.

Take `Cc1noc(-c2ccc(-n3c(NC(C)C)nc4c(c3=O)C[C@@H](C)N(C(=O)c3ccc(Cl)c(Cl)c3)C4)cc2)n1` [Compound C371]: in data set [1] (setting [2]), the EC50 was determined as 0.13 µM. Moreover, the CC50 at 3 days in the data set “in vitro” (setting [3]) is over 50 µM.

For the molecule `CNC(=O)c1ccc(-n2c(NC(C)C)nc3c(c2=O)C[C@@H](C)N(C(=O)c2cc(C)c(C#N)c(C)c2)C3)cc1` [Compound C506], the EC50 in data set [1] (setting [4]) worked out at 0.94 µM. Besides, the CC50 at 3 days in “in vitro” (setting [5]) was over 50 µM.

With `CNC(=O)c1cc(-n2c(NC(C)C)nc3c(c2=O)C[C@@H](C)N(C(=O)c2ccc(Cl)c(Cl)c2)C3)nn1C` [Compound C292, 3-[(6R)-7-(3,4-dichlorobenzoyl)-6-methyl-4-oxo-2-[(propan-2-yl)amino]-5,6,7,8-tetrahydropyrido[3,4-d]pyrimidin-3(4H)-yl]-N,1-dimethyl-1H-pyrazole-5-carboxamide], in data set [1] (setting [2]), the EC50 is 0.04 µM. The molecule also displayed a 50% cytotoxic concentration (CC50) at 3 days in the data set “in vitro” (setting [3]) of over 50 µM.

As to `CNC(=O)[C@H]1CC[C@H](n2c(N[C@@H](C)c3ccc(OC(F)(F)F)cc3)nc3c(c2=O)C[C@@H](C)N(C(=O)c2ccc(Cl)c(Cl)c2)C3)CC1` [Compound C632], the EC50 in data set [1] (setting [4]) came to 0.12 µM. For the same molecule, the CC50 at 3 days in “in vitro” (setting [5]) was 6.2 µM.

As for `CNC(=O)c1ccc(-n2c(NC(C)C)nc3c(c2=O)C[C@@H](C)N(C(=O)c2ccc(Cl)cc2Cl)C3)cc1` [Compound C582], in data set [1] (setting [4]), the EC50 amounted to 2.34 µM. The same molecule came in with a CC50 at 3 days in the data set “in vitro” (setting [5]) of over 50 µM.

With `CC(C)Nc1nc2c(c(=O)n1-c1ccc(-c3ncco3)cc1)CCN(C(=O)c1ccc(Cl)c(Cl)c1)C2` [Compound C162, 7-(3,4-dichlorobenzoyl)-3-[4-(1,3-oxazol-2-yl)phenyl]-2-[(propan-2-yl)amino]-5,6,7,8-tetrahydropyrido[3,4-d]pyrimidin-4(3H)-one], the EC50 in data set [1] (setting [2]) worked out at 0.47 µM. The molecule further yielded a CC50 at 3 days in “in vitro” (setting [3]) of over 50 µM.

Consider `CNC(=O)c1ccc(-n2c(N3CCC34CCC4)nc3c(c2=O)C[C@@H](C)N(C(=O)c2ccc(Cl)c(Cl)c2)C3)cc1` [Compound C373], for which the EC50 in data set [1] (setting [2]) was determined as 0.71 µM. The same molecule had a CC50 at 3 days in the data set “in vitro” (setting [3]) of 28.3 µM.

Take `CNC(=O)c1ccc(-n2c(N[C@@H](C)c3cnccn3)nc3c(c2=O)C[C@@H](C)N(C(=O)c2ccc(Cl)c(C(F)(F)F)c2)C3)cc1` (single isomer, unassigned) [Compound C665b]: the EC50 in data set [1] (setting [4]) was found to be 0.65 µM. For the same molecule, in “in vitro” (setting [5]), the CC50 at 3 days is over 50 µM.

On to `CC(C)Nc1nc2c(c(=O)n1-c1ccc(S(C)(=O)=O)cc1)CCN(C(=O)c1ccc(Cl)c(Cl)n1)C2` [Compound C223, 7-(5,6-dichloropyridine-2-carbonyl)-3-[4-(methanesulfonyl)phenyl]-2-[(propan-2-yl)amino]-5,6,7,8-tetrahydropyrido[3,4-d]pyrimidin-4(3H)-one], for which the EC50 in data set [1] (setting [2]) is over 10 µM. In the data set “in vitro” (setting [3]), the CC50 at 3 days is over 50 µM.

Consider `COc1ccc(CNc2nc3c(c(=O)n2-c2ccccc2OC)CC(C)N(C(=O)c2ccc(Cl)c(Cl)c2)C3)cc1` (stereo not drawn) [Compound C36, 7-(3,4-dichlorobenzoyl)-3-(2-methoxyphenyl)-2-{[(4-methoxyphenyl)methyl]amino}-6-methyl-5,6,7,8-tetrahydropyrido[3,4-d]pyrimidin-4(3H)-one], for which the EC50 in data set [1] (setting [2]) came to 1.26 µM. The same molecule gave a CC50 at 3 days in “in vitro” (setting [3]) of over 50 µM.

Consider `C[C@@H]1Cc2c(nc(NCc3cscn3)n(-c3ccc(S(C)(=O)=O)cc3)c2=O)CN1C(=O)c1ccc(Cl)c(Cl)c1` [Compound C146, (6R)-7-(3,4-dichlorobenzoyl)-3-[4-(methanesulfonyl)phenyl]-6-methyl-2-{[(1,3-thiazol-4-yl)methyl]amino}-5,6,7,8-tetrahydropyrido[3,4-d]pyrimidin-4(3H)-one], for which the EC50 in data set [1] (setting [2]) turned out to be 1.95 µM. Moreover, in “in vitro” (setting [3]), the CC50 at 3 days is over 50 µM.

Consider `CNC(=O)c1ccc(-n2c(NC(C)C)nc3c(c2=O)C[C@@H](C)N(C(=O)c2ccc(C(F)F)c(Cl)c2)C3)cc1` [Compound C418], for which the EC50 in data set [1] (setting [4]) was 0.08 µM. Besides, the CC50 at 3 days in “in vitro” (setting [5]) was over 50 µM.

Turning to `CNC(=O)c1ccc(-n2c(N3CCC3(C)C)nc3c(c2=O)C[C@@H](C)N(C(=O)c2ccc(Cl)c(Cl)c2)C3)cc1` [Compound C303, 4-[(6R)-7-(3,4-dichlorobenzoyl)-2-(2,2-dimethylazetidin-1-yl)-6-methyl-4-oxo-5,6,7,8-tetrahydropyrido[3,4-d]pyrimidin-3(4H)-yl]-N-methylbenzamide], the EC50 in data set [1] (setting [2]) was found to be 0.07 µM. The molecule also yielded a CC50 at 3 days in “in vitro” (setting [3]) of 26.7 µM.

With `CNC(=O)c1ccc(-n2c(N[C@@H](C)c3ccc(C(F)(F)F)c(Cl)c3)nc3c(c2=O)C[C@@H](C)N(C(=O)c2ccc(Cl)c(Cl)c2)C3)cc1` (single isomer, unassigned) [Compound C664b], the half-maximal effective concentration (EC50) in data set [1] (setting [4]) was over 2.5 µM. Moreover, the CC50 at 3 days in the data set “in vitro” (setting [5]) was over 50 µM.

On to `CNC(=O)c1ccc(-n2c(NCc3ccc(OC)cc3)nc3c(c2=O)CCN(C(=O)c2ccc(Cl)c(Cl)c2)C3)cc1` [Compound C129, 4-[7-(3,4-dichlorobenzoyl)-2-{[(4-methoxyphenyl)methyl]amino}-4-oxo-5,6,7,8-tetrahydropyrido[3,4-d]pyrimidin-3(4H)-yl]-N-methylbenzamide], for which the EC50 in data set [1] (setting [2]) is 0.44 µM. The CC50 at 3 days in “in vitro” (setting [3]) is 44.4 µM.

For `CNC(=O)c1ccc(-n2c(NC(C)C)nc3c(c2=O)C[C@@H](C)N(C(=O)c2[nH]nc(C(F)(F)F)c2C)C3)cc1` [Compound C493], the EC50 in data set [1] (setting [4]) came to 15.2 µM. In the data set “in vitro” (setting [5]), this molecule displayed a CC50 at 3 days of over 50 µM.

In the case of `CNC(=O)c1ccc(-n2c(NC(C)C)nc3c(c2=O)C[C@@H](C)N(C(=O)c2ccc(F)c(Cl)c2)C3)cc1` [Compound C478], the EC50 in data set [1] (setting [4]) is 1.28 µM. In “in vitro” (setting [5]), this molecule gave a CC50 at 3 days of over 50 µM.

For the molecule `CC(C)Nc1nc2c(c(=O)n1-c1ccc(S(C)(=O)=O)cc1)CCN(C(=O)c1cc3cc(F)ccc3[nH]1)C2` [Compound C136, 7-(5-fluoro-1H-indole-2-carbonyl)-3-[4-(methanesulfonyl)phenyl]-2-[(propan-2-yl)amino]-5,6,7,8-tetrahydropyrido[3,4-d]pyrimidin-4(3H)-one], in data set [1] (setting [2]), the EC50 is 0.24 µM. In the data set “in vitro” (setting [3]), this molecule had a CC50 at 3 days of over 50 µM.

On to `CNC(=O)c1noc2cc(-n3c(NC(C)C)nc4c(c3=O)C[C@@H](C)N(C(=O)c3ccc(Cl)c(Cl)c3)C4)ccc12` [Compound C638], for which, in data set [1] (setting [4]), the EC50 was determined as 0.14 µM. Further, in the data set “in vitro” (setting [5]), the CC50 at 3 days is over 50 µM.

Consider `CC(C)Nc1nc2c(c(=O)n1-c1ccc(S(C)(=O)=O)cc1)CCN(C(=O)c1ccc(Cl)c(C(F)(F)F)c1)C2` [Compound C191, 7-[4-chloro-3-(trifluoromethyl)benzoyl]-3-[4-(methanesulfonyl)phenyl]-2-[(propan-2-yl)amino]-5,6,7,8-tetrahydropyrido[3,4-d]pyrimidin-4(3H)-one], for which, in data set [1] (setting [2]), the EC50 is 0.4 µM. In the data set “in vitro” (setting [3]), this molecule gave a CC50 at 3 days of over 50 µM.

Turning to `CNC(=O)c1ccc(-n2c(N[C@@H](C)c3ccc4[nH]ncc4c3)nc3c(c2=O)C[C@@H](C)N(C(=O)c2ccc(Cl)c(Cl)c2)C3)cc1` (single isomer, unassigned) [Compound C529b], the EC50 in data set [1] (setting [4]) was 0.72 µM. In the data set “in vitro” (setting [5]), this molecule had a CC50 at 3 days of over 50 µM.

Turning to `CC(C)Nc1nc2c(c(=O)n1-c1ccc(S(C)(=O)=O)cc1)C[C@H](c1ccc(F)cc1)N(C(=O)c1ccc(Cl)c(Cl)c1)C2` (single isomer, unassigned) [Compound C110B, (6*R)-7-(3,4-dichlorobenzoyl)-6-(4-fluorophenyl)-3-[4-(methanesulfonyl)phenyl]-2-[(propan-2-yl)amino]-5,6,7,8-tetrahydropyrido[3,4-d]pyrimidin-4(3H)-one], the EC50 in data set [1] (setting [2]) was 6.38 µM. In the data set “in vitro” (setting [3]), the CC50 at 3 days is over 50 µM.

In the case of `CNC(=O)c1ccc(-n2c(N3CCCC3(C)C)nc3c(c2=O)C[C@@H](C)N(C(=O)c2ccc(Cl)c(Cl)c2)C3)cc1` [Compound C307, 4-[(6R)-7-(3,4-dichlorobenzoyl)-2-(2,2-dimethylpyrrolidin-1-yl)-6-methyl-4-oxo-5,6,7,8-tetrahydropyrido[3,4-d]pyrimidin-3(4H)-yl]-N-methylbenzamide], the EC50 in data set [1] (setting [2]) turned out to be 0.09 µM. In the data set “in vitro” (setting [3]), this molecule displayed a CC50 at 3 days of 28 µM.
